Consider 6 compounds from patent publication US12030895B2, “Method for preparing heterocyclic derivative compound, composition containing same compound, and hydrate of same compound” (JW PHARMACEUTICAL CORPORATION, priority 2017, dated 2024).

Like-named read-outs stand apart in the source and are kept apart here.

The conditions of data set [1]: for form in which the salt was obtained: salt forms prepared by the same process; for Initial purity: before storage.
Data set [2] concerns gout patients. Nature of the data set: Serum uric acid level in gout patients per dose. The data set is classed as in vivo, human. The settings on record: 14 days; for patients whose serum uric acid level fell below <5.0 mg/dL / percentage of patients whose serum uric acid level fell below <5.0 mg/dL: measured 15th day. On the procedure:
The compound was orally administered at doses of 0.25 mg (N=12), 0.5 mg (N=12), 1 mg (N=12) and 2 mg (N=12) based on the active ingredient (3,5-dibromo-4-hydroxyphenyl)(2,3-dihydro-4H-pyrido[4,3-b][1,4]oxazin-4-yl)-methanone (Formula I), and placebo (N=12), for 14 days. The efficacy and safety of the compound on the serum uric acid (UA) level was evaluated in comparison with the placebo.
Serum uric acid levels were measured on the 15th day after administration, and the percentages of patients whose serum uric acid level fell below <6.0 mg/dL and below <5.0 mg/dL were determined and shown in FIG. 13. […] From the above results, it could be understood that a dose less than 2 mg is not effective in the treatment of diseases such as hyperuricemia and gout.
In addition, for a total of 68 gout patients, (3,5-dibromo-4-hydroxyphenyl)(2,3-dihydro-4H-pyrido[4,3-b][1,4]oxazin-4-yl)-methanone hydrochloride 1.5 hydrate according to the present invention was administered. The compound was orally administered at doses of 3 mg (N=13), 5 mg (N=14), 7 mg (N=15) and 10 mg (N=15) based on the active ingredient (3,5-dibromo-4-hydroxyphenyl)(2,3-dihydro-4H-pyrido[4,3-b][1,4]oxazin-4-yl)-methanone (Formula I), and placebo (N=11), for 14 days. The efficacy and safety of the compound on the serum uric acid level was evaluated in comparison with the placebo.
Serum uric acid levels were measured on the 15th day after administration, and the percentages of patients whose serum uric acid level fell below <6.0 mg/dL and below <5.0 mg/dL were determined and shown in FIG. 14.

Data set [3] is described as follows: Physical stability to processing factors (grinding, granulating, tableting). Type of data set: physicochemical. The source says:
In addition, the physical stability to processing factors in the preparation of the above 1.5 hydrate and the non-solvate were compared, and the results are shown in Table 2 below.

Data set [4] is described as follows: Solubility test in FeSSIF. The data set is classed as physicochemical. The settings on record: At 240 minutes; 50 mL FeSSIF (pH 5.0), 37° C., paddle 50 rpm; 10 mg compound + 100 mg lactose. On the procedure:
The solubility test was carried out using 50 mL of FeSSIF (pH 5.0) as a medium and setting the paddle speed at 50 rpm under the operation condition at 37° C.

The test system of data set [5] is gout patients. Nature of the data set: Adverse drug reaction per dose in gout patients. Type of data set: in vivo, human. The settings on record: oral, 14 days. On the procedure: The compound was orally administered at doses 3 mg (N=14), 5 mg (N=15), 7 mg (N=17) and 10 mg (N=17) based on the active ingredient (3,5-dibromo-4-hydroxyphenyl)(2,3-dihydro-4H-pyrido[4,3-b][1,4]oxazin-4-yl)-methanone (Formula I), and placebo (N=13), for 14 days, and the adverse drug reaction was investigated.

Data set [6] relates to gout patients. Nature of the data set: Urinary creatinine levels in gout patients. The following applies: 10 mg, oral, 14 days. Type of data set: in vivo, human. As to the method: Furthermore, urinary creatinine levels were also measured in the same patients. The number of cases in which creatinine is increased by more than 0.3 mg/dL or more than 1.5 times compared to baseline is shown in Table 4 below.

The mark [7] stands for this setting: 30% v/w solvent, granulated about 2 min, dried at 50° C.

Take `O=P(O)(O)O.c1cc2c(cn1)NCCO2`: the “form in which the salt was obtained” value in data set [1] is recorded as “gel form”.
Take `Cl.c1cc2c(cn1)NCCO2`: the “form in which the salt was obtained” value in data set [1] is listed as “unstable in a semi-solid form”.
In the case of `c1cc2c(cn1)NCCO2` [Free base], in data set [1] (30° C., 65% RH), the “purity, 1 week” value was determined as 97.72%; the “purity, 2 weeks” value was found to be 97.96%; the “purity, 4 weeks” value worked out at 98.18%. In addition, in data set [1] (40° C., 75% RH), the “purity, 1 week” value is recorded as 97.74%; the “purity, 2 weeks” value amounted to 97.91%; the “purity, 4 weeks” value is 98.10%. The compound further came in with an Initial purity in data set [1] of 99.36%. Further, the “Note (purity over the stability test)” value in data set [1] (both conditions, up to 4 weeks) is over 97.5%.
As for `O=S(=O)(O)O.c1cc2c(cn1)NCCO2` [Sulfate], in data set [1] (30° C., 65% RH), the “purity, 1 week” value is listed as 99.05%; the “purity, 2 weeks” value was found to be 99.85%; the “purity, 4 weeks” value was “melted”. In data set [1] (40° C., 75% RH), the “purity, 1 week” value was “melted”; the “purity, 2 weeks” value was “melted”; the “purity, 4 weeks” value is reported as “melted”. In addition, in data set [1], the Initial purity is recorded as 98.88% and the “form in which the salt was obtained” value was “solid form”. The “Note (stability verdict)” value in data set [1] (both conditions, up to 4 weeks) is given as “unstable”. The “stability test outcome in words” value in data set [1] (stability test for 4 weeks) is on record as “the solid melted again to a liquid”.
Regarding `O=C(c1cc(Br)c(O)c(Br)c1)N1CCOc2ccncc21` [compound of Formula I, (3,5-dibromo-4-hydroxyphenyl)(2,3-dihydro-4H-pyrido[4,3-b][1,4]oxazin-4-yl)-methanone], the “patients whose serum uric acid level fell below <5.0 mg/dL” value in data set [2] (0.25 mg oral), in data set [2] (0.5 mg oral) and in data set [2] (1 mg oral) was “no patient” each time. Moreover, the “percentage of patients whose serum uric acid level fell below <5.0 mg/dL” value in data set [2] (2 mg oral) is recorded as “about 8%”; in data set [2] (3 mg oral), “approximately 23%”; in data set [2] (5 mg oral) it was about 64%; in data set [2] (7 mg oral), about 80%; in data set [2] (10 mg oral) it was about 73%.
Take `Cl.Cl.O.O.O.O=C(c1cc(Br)c(O)c(Br)c1)N1CCOc2ccncc21.O=C(c1cc(Br)c(O)c(Br)c1)N1CCOc2ccncc21` [hydrochloride 1.5 hydrate, (3,5-dibromo-4-hydroxyphenyl)(2,3-dihydro-4H-pyrido[4,3-b][1,4]oxazin-4-yl)-methanone hydrochloride 1.5 hydrate]: in data set [3] (2 tons of pressure for 5 sec, 7 mm punches, powder X-ray diffractometer), the “Crystallinity change after Tableting” value is on record as “Δ5% (94→89%)”. Besides, in data set [3] (setting [7]), the “Solid form after Granulating with 1:1 of water and ethanol” value is given as “Unchanged”. Also, the “Solid form after Granulating with water” value in data set [3] (setting [7]) is reported as “Unchanged”. In data set [3] (granulating), the “solid forms in granulating” value was “no change”. Also, the “Crystallinity change after Grinding” value in data set [3] (ground about 2 min using a mortar, powder X-ray diffractometer) is given as “Δ3% (94→91%)”. Further, the solubility result in data set [4] is listed as “about 125 μg/mL”. The “patients whose serum uric acid level fell below <5.0 mg/dL” value in data set [2] (0.25 mg oral), in data set [2] (0.5 mg oral) and in data set [2] (1 mg oral) was “no patient” in each case. In addition, the “percentage of patients whose serum uric acid level fell below <5.0 mg/dL” value in data set [2] (2 mg oral) is reported as “about 8%”; in data set [2] (3 mg oral) it was “approximately 23%”; in data set [2] (5 mg oral), about 64%; in data set [2] (7 mg oral), about 80%; in data set [2] (10 mg oral), about 73%. Further, the “Patients whose serum uric acid level fell below <6.0 mg/dL” value in data set [2] (3 mg, 5 mg, 7 mg and 10 mg, oral) is listed as “appeared in all experimental doses”. The “arthralgia (adverse drug reaction)” value in data set [5] (3 mg (N = 14)), in data set [5] (5 mg (N = 15)) and in data set [5] (7 mg (N = 17)) was 0 throughout. The “joint swelling (adverse drug reaction)” value in data set [5] (3 mg (N = 14)), in data set [5] (5 mg (N = 15)) and in data set [5] (7 mg (N = 17)) was 0 each time. Besides, in data set [5] (3 mg, 5 mg, 7 mg and 10 mg), the “incidence of adverse events such as arthralgia and joint swelling” value is “no or very low incidence”. Moreover, the “arthralgia (adverse drug reaction), cases” value in data set [5] (10 mg (N = 17)) is “[3 cases]”. In addition, the “arthralgia (adverse drug reaction), persons” value in data set [5] (10 mg (N = 17)) was 2 persons. Besides, the “arthralgia (adverse drug reaction), share of persons” value in data set [5] (10 mg (N = 17)) is 11.76%. In addition, the “joint swelling (adverse drug reaction), cases” value in data set [5] (10 mg (N = 17)) was “[1 case]”. For the same compound, the “joint swelling (adverse drug reaction), persons” value in data set [5] (10 mg (N = 17)) is recorded as 1 person. Further, the “joint swelling (adverse drug reaction), share of persons” value in data set [5] (10 mg (N = 17)) is reported as 5.88%. In data set [6], the “Number of cases in which creatinine is increased by more than 0.3 mg/dL or more than 1.5 times compared to baseline” value was 3.
